Experimental data from US12084420B2, “Indoline compounds for inhibiting KIF18A” (Volastra Therapeutics, Inc., priority 2021, dated 2024).
Where two headings read alike, the source gives them in different places.

Molecular target: hKIF18A (1-374) (Homo sapiens (Human), UniProt Q8NI77)
Test: Inhibition of KIF18A microtubule-dependent ATPase activity (ADP-Glo)
[1] = KIF18A microtubule-dependent ATPase activity, biochemical assay

hKIF18A (1-374), sequence (Q8NI77 whole entry, looked up): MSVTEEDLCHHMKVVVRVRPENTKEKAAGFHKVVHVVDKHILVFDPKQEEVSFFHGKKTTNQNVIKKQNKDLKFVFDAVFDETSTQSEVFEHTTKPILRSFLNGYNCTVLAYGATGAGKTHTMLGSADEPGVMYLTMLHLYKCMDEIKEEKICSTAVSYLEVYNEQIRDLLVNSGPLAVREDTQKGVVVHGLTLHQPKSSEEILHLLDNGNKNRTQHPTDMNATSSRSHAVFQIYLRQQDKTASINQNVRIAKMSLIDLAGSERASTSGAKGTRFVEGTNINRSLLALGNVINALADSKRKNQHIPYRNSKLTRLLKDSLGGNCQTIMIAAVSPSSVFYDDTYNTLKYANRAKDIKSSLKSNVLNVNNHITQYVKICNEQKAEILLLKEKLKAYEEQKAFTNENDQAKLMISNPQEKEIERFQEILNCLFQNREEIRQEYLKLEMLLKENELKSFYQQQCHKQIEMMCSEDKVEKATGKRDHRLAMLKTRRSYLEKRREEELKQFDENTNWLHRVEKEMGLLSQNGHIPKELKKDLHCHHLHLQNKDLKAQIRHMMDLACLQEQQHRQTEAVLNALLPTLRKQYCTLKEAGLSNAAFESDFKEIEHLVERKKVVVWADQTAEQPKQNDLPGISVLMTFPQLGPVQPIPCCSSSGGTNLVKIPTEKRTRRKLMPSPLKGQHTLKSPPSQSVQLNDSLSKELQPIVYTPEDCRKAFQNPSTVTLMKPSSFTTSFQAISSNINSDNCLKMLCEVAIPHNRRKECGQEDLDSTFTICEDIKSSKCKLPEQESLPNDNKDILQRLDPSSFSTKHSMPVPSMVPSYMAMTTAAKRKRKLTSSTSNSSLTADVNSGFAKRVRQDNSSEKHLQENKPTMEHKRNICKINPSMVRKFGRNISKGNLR
hKIF18A (1-374), sequence (Q2XVP4 whole entry partner, looked up): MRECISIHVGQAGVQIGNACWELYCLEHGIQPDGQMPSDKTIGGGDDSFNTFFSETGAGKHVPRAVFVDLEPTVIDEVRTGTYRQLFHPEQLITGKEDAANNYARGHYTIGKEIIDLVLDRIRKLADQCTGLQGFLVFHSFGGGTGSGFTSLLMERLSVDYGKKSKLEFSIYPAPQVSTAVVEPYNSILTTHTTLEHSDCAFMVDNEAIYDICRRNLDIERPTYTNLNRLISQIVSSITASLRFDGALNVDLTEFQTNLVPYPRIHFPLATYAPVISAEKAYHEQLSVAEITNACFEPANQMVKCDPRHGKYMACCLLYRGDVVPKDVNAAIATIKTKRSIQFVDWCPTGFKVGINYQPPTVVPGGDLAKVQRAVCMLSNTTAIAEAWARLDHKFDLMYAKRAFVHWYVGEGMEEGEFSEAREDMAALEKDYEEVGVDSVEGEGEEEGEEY
hKIF18A (1-374), sequence (P02554 whole entry partner, looked up): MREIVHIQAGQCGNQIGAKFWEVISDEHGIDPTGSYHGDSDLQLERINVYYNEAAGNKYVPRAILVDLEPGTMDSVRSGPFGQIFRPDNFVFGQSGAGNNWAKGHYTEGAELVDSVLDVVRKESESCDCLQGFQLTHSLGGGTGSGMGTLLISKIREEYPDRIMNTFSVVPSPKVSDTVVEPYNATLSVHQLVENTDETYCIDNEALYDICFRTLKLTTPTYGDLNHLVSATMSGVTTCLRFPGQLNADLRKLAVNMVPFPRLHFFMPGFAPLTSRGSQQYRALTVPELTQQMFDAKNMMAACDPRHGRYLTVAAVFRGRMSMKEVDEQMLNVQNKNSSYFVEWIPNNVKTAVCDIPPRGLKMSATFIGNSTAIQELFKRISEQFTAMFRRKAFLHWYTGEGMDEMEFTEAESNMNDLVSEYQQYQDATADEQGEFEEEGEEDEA

SMILES	IC50 [1]	IC50
CC1(O)CN(S(=O)(=O)c2cccc(C(=O)N3CC4(CCC5(CC5)CC4)c4cc(NS(C)(=O)=O)ccc43)c2)C1 [Compound 255, N-(1″-(3-((3-hydroxy-3-methylazetidin-1-yl)sulfonyl)benzoyl)dispiro[cyclopropane-1,1′-cyclohexane-4′,3″-indolin]-5″- yl)methanesulfonamide]	0.063 µM	
CS(=O)(=O)Nc1ccc2c(c1)C1(CCC3(CC3)CC1)CN2C(=O)c1cccc(C(O)CN2CCC(F)(F)CC2)c1 (centres unmarked) [Compound 315, N-(1″-(3-(2-(4,4-difluoropiperidin-1-yl)-1-hydroxyethyl)benzoyl)dispiro[cyclopropane-1,1′-cyclohexane-4′,3″-indolin]-5″-yl)methanesulfonamide]	0.053 µM	
O=C(c1cccc(S(=O)(=O)NC2CCC2)c1)N1CC2(CCC3(CC3)CC2)c2cc(NS(=O)(=O)CCO)ccc21 [Compound 227, N-cyclobutyl-3-(5″-((2-hydroxyethyl)sulfonamido)dispiro[cyclopropane-1,1′-cyclohexane-4′,3″- indoline]-1″- carbonyl)benzenesulfonamide]	0.0072 µM	
CS(=O)(=O)Nc1ccc2c(c1)C1(CCC3(CC3)CC1)CN2C(=O)c1csc(C(O)C2CCCC2)c1 (centres unmarked) [Compound 301, N-(1″-(5-(cyclopentyl(hydroxy)methyl)thiophene-3-carbonyl)dispiro[cyclopropane-1,1′-cyclohexane-4′,3″-indolin]-5″-yl)methanesulfonamide]	0.021 µM	
CS(=O)(=O)Nc1ccc2c(c1)C1(CCC3(CC3)CC1)CN2C(=O)c1cccc(S(=O)(=O)NC2CC2)c1 [Compound 212, N-cyclopropyl-3-(5″- (methylsulfonamido)dispiro[cyclopropane-1,1′-cyclohexane-4′,3″-indoline]-1″-carbonyl)benzenesulfonamide]	0.012 µM	
CS(=O)(=O)Nc1ccc2c(c1)C1(CCCCC1)CN2C(=O)c1cccc(S(=O)(=O)N2CC3CC3C2)c1 (centres unmarked) [Compound 25, N-(1′-(3-((3-azabicyclo[3.1.0]hexan-3-yl)sulfonyl)benzoyl)spiro[cyclohexane-1,3′-indolin]-5′-yl)methanesulfonamide]	0.12 µM	
CC(C)(C)[C@H](O)c1ccc(C(=O)N2CC3(CCC4(CC4)CC3)c3cc(NS(C)(=O)=O)ccc32)o1 (single isomer, unassigned) [Compound 373b]	0.17 µM	
CCS(=O)(=O)Nc1ccc2c(c1)C1(CCC3(CC3)CC1)CN2C(=O)c1ccc([C@@H](O)C(C)(C)C)o1 (single isomer, unassigned) [Compound 372b]	0.035 µM	
CS(=O)(=O)Nc1ccc2c(c1)C1(CCC3(CC3)CC1)CN2C(=O)c1cc(C(O)C2CCCC2)cs1 (centres unmarked) [Compound 364, N-(1″-(4-(cyclopentyl(hydroxy)methyl)thiophene-2-carbonyl)dispiro[cyclopropane-1,1′-cyclohexane-4′,3″-indolin]-5″- yl)methanesulfonamide]	0.0051 µM	
CCC(C)NS(=O)(=O)c1cccc(C(=O)N2CC3(CCC4(CC4)CC3)c3cc(NS(C)(=O)=O)ccc32)c1 (centres unmarked) [Compound 170, N-(sec-butyl)-3-(5″- (methylsulfonamido)dispiro[cyclopropane-1,1′-cyclohexane-4′,3″-indoline]-1″-carbonyl)benzenesulfonamide]	0.015 µM	
C[C@@H]1CCN(S(=O)(=O)c2cccc(C(=O)N3CC4(CCC5(CC5)CC4)c4cc(NS(C)(=O)=O)ccc43)c2)C1 [(R)-Compound 249, (R)-N-(1″-(3-((3-methylpyrrolidin-1-yl)sulfonyl)benzoyl)dispiro[cyclopropane-1,1′-cyclohexane-4′,3″-indolin]-5″- yl)methanesulfonamide]		0.011 µM
CS(=O)(=O)Nc1ccc2c(c1)C1(CCC3(CC3)CC1)CN2C(=O)c1cccc(S(=N)(=O)C2CCCC2)c1 (single isomer, unassigned) [Compound 287a]	0.034 µM	
O=C(c1cccc(S(=O)(=O)N2CCCCC2)c1)N1CC2(CCC3(CC3)CC2)c2ccccc21 [Compound 6, dispiro[cyclopropane-1,1′-cyclohexane-4′,3″-indolin]-1″-yl(3-(piperidin-1-ylsulfonyl)phenyl)methanone]	0.58 µM	
CS(=O)(=O)Nc1ccc2c(c1)C1(CCC3(CC3)CC1)CN2C(=O)c1csc(S(=O)(=O)C2CCCC2)c1 [Compound 330, N-(1″-(5-(cyclopentylsulfonyl)thiophene-3-carbonyl)dispiro[cyclopropane-1,1′-cyclohexane-4′,3″-indolin]-5″- yl)methanesulfonamide]	0.012 µM	
CC(C)(C)NS(=O)(=O)c1cccc(C(=O)N2CC3(CCC4(CC4)CC3)c3cc(C(O)C(F)(F)F)ccc32)c1 (single isomer, unassigned) [Compound 338b]	0.083 µM	
CC(C)(C)NS(=O)(=O)c1ccc(C(=O)N2CC3(CCC4(CC4)CC3)c3cc(NS(C)(=O)=O)ccc32)o1 [Compound 299, N-(tert-butyl)-5-(5″- (methylsulfonamido)dispiro[cyclopropane-1,1′-cyclohexane-4′,3″-indoline]-1″-carbonyl)furan-2-sulfonamide]	0.014 µM	

SMILES	IC50 [1]	IC50
CS(=O)(=O)Nc1ccc2c(c1)C1(CCC3(CC3)CC1)CN2C(=O)c1cccc(S(=O)(=O)NC2COC2)c1 [Compound 174, 3-(5″- (methylsulfonamido)dispiro[cyclopropane-1,1′-cyclohexane-4′,3″-indoline]-1″-carbonyl)-N-(oxetan-3-yl)benzenesulfonamide]	0.056 µM	
CC1=CCC2(CC1)CN(C(=O)c1cccc(S(=O)(=O)NC(C)(C)C)c1)c1ccc(NS(C)(=O)=O)cc12 (centres unmarked) [Compound 295, N-(tert-butyl)-3-(4-methyl-5′-(methylsulfonamido)spiro[cyclohexane-1,3′-indolin]-3-en-1′-carbonyl)benzenesulfonamide]	0.038 µM	
CS(=O)(=O)Nc1ccc2c(c1)C1(CCC3(CC3)CC1)CN2C(=O)c1ccc(S(=O)(=O)N2CC3(CCC3)C2)o1 [Compound 321, N-(1″-(5-((2-azaspiro[3.3]heptan-2-yl)sulfonyl)furan-2-carbonyl)dispiro[cyclopropane-1,1′-cyclohexane-4′,3″-indolin]-5″- yl)methanesulfonamide]	0.0063 µM	
CC(C)(C)NS(=O)(=O)c1cccc(C(=O)N2CC3(CCC4(CC4)CC3)c3cc(C(O)C(F)(F)F)ccc32)c1 (single isomer, unassigned) [Compound 338a]	0.048 µM	
C=C1CCC2(CC1)CN(C(=O)c1cccc(S(=O)(=O)NC(C)(C)C)c1)c1ccc(NS(C)(=O)=O)cc12 [Compound 324, N-(tert-butyl)-3-(4-methylene-5′-(methylsulfonamido)spiro[cyclohexane-1,3′-indoline]-1′-carbonyl)benzenesulfonamide]	0.021 µM	
CCC(CO)NS(=O)(=O)c1cccc(C(=O)N2CC3(CCC4(CC4)CC3)c3cc(NS(C)(=O)=O)ccc32)c1 (centres unmarked) [Compound 208, N-(1-hydroxybutan-2-yl)-3-(5″- (methylsulfonamido)dispiro[cyclopropane-1,1′-cyclohexane-4′,3″-indoline]-1″-carbonyl)benzenesulfonamide]	0.064 µM	
CC(C)(C)NS(=O)(=O)c1cc(C(=O)N2CC3(CCC(F)(F)CC3)c3cc(NS(C)(=O)=O)ccc32)cs1 [Compound 277, N-(tert-butyl)-4-(4,4-difluoro-5′-(methylsulfonamido)spiro[cyclohexane-1,3′-indoline]-1′-carbonyl)thiophene-2-sulfonamide]	0.041 µM	
CC(C)(C)NS(=O)(=O)c1cccc(C(=O)N2C[C@]3(CC[C@H](C(F)(F)F)CC3)c3cc(NS(C)(=O)=O)ccc32)c1 [Compound 361a]	0.015 µM	
CS(=O)(=O)Nc1ccc2c(c1)C1(CCC3(CC3)CC1)CN2C(=O)c1cccc(C(O)CN2CC(F)(F)C2)c1 (centres unmarked) [Compound 314, N-(1″-(3-(2-(3,3-difluoroazetidin-1-yl)-1-hydroxyethyl)benzoyl)dispiro[cyclopropane-1,1′-cyclohexane-4′,3″-indolin]-5″-yl)methanesulfonamide]	0.028 µM	
CS(=O)(=O)Nc1ccc2c(c1)C1(CCCCC1)CN2C(=O)c1cccc(SC2CCCC2)c1 [Compound 146, N-(1′-(3-(cyclopentylthio)benzoyl)spiro[cyclohexane-1,3′-indolin]-5′-yl)methanesulfonamide]	0.19 µM	
CS(=O)(=O)Nc1ccc2c(c1)C1(CCCCC1)CN2C(=O)c1cccc(S(=O)(=O)C2CCCC2)c1 [Compound 50, N-(1′-(3-(cyclopentylsulfonyl)benzoyl)spiro [cyclohexane-1,3′-indolin]-5′-yl)methanesulfonamide]	0.072 µM	
CCOC(=O)Nc1ccc2c(c1)C1(CCCCC1)CN2C(=O)c1cccc(S(=O)(=O)N2CCCCC2)c1 [Compound 141, ethyl (1′-(3-(piperidin-1-ylsulfonyl)benzoyl)spiro[cyclohexane-1,3′-indolin]-5′-yl)carbamate]	1.1 µM	
CC(C)(C)NS(=O)(=O)c1cc(C(=O)N2CC3(CCCCC3)c3cc(NS(C)(=O)=O)ccc32)ccc1F [Compound 96, N-(tert-butyl)-2-fluoro-5-(5′-(methylsulfonamido)spiro[cyclohexane-1,3′-indoline]-1′-carbonyl)benzenesulfonamide]	0.1 µM	
CS(=O)(=O)Nc1ccc2c(c1)C1(CCC3(CC3)CC1)CN2C(=O)c1cccc(S(=O)(=O)NC2CCCCC2)c1 [Compound 180, N-cyclohexyl-3-(5″- (methylsulfonamido)dispiro[cyclopropane-1,1′-cyclohexane-4′,3″-indoline]-1″-carbonyl)benzenesulfonamide]	0.011 µM	
COCCS(=O)(=O)Nc1ccc2c(c1)C1(CCC3(CC3)CC1)CN2C(=O)c1cccc(S(=O)(=O)NC(C)(C)C)c1 [Compound 300, N-(tert-butyl)-3-(5″-((2-methoxyethyl)sulfonamido)dispiro [cyclopropane-1,1′-cyclohexane-4′,3″- indoline]-1″- carbonyl)benzenesulfonamide]	0.031 µM	
CC1(NS(=O)(=O)c2cccc(C(=O)N3CC4(CCC5(CC5)CC4)c4cc(NS(C)(=O)=O)ccc43)c2)CSC1 [Compound 226, 3-(5″- (methylsulfonamido)dispiro[cyclopropane-1,1′-cyclohexane-4′,3″-indoline]-1″-carbonyl)-N-(3-methylthietan-3-yl)benzenesulfonamide]	0.013 µM	
